Columns and labels:
[1] = tested on: Dictyostelium discoidium strain NC4A2 cells; test: ECIS/taxis under-agarose chemotaxis assay, cell movement in a folate gradient; format: cell-based
Description: Dictyostelium discoidium strain NC4A2 is an axenic cell line derived from the wild type NC4 line. The myosin II heavy chain mutant (HK323) was generated by homologous recombination to delete the coding portion of the gene in the NC4A2 cell line. Cells were maintained in HL5 media in 100 mm petri dishes with media changes every three days. Cells to be used for experimental procedures were harvested at mid-log phase. Cells were centrifuged at 200×g for 5 minutes at room temperature, re-suspended in fresh media and counted with a Z2 particle counter (Coulter, Miami, Fla.). Chambers were loaded with 10^6 cells per well.
Chemotaxis assays were adapted from the under-agarose chemotaxis method. Briefly, a 0.5% solution of GTG agarose (FMC Corporation, Rockland, Me.) was prepared in 1×SM media (10 g Difco Bacto-Peptone, 10 g glucose, 1 g yeast extract, 1.9 g KH2PO4, 0.6 g K2HPO4, 0.43 g MgSO4 per liter, pH 6.5). For chemokinetic assays, 2×SM agarose media was premixed with an equal volume of 2× folic acid and then added to the chamber to harden.
The chemoattractant folic acid (Research Organics, Inc. Cleveland, Ohio) stock at 100 mM was prepared by dissolving 0.44 g folate in 220 ul of 10 M NaOH. The final volume was adjusted to 10 ml with distilled water. The solution was filter sterilized through a 0.2 micron filter, aliquoted and stored frozen at −20° C. in the dark. The folate solution was adjusted to the appropriate concentration and added to wells one hour prior to the addition of cells to allow for establishment of the chemotactic gradient. […] Following this incubation, the cells were washed three times in PDF and then re-suspended in PDF before placement in the cell wells of ECIS/taxis chambers.
The commercially available ECIS electrode configuration (Applied Biophysics, Inc., Troy, N.Y.) consists of 8 chambers per array, each with a large electrode and a small target electrode (see panel A of FIG. 2). These chambers were filled with 300 μL of a 0.5% solution of melted agarose prepared as described above. […]
The chemoattractant was then loaded into one well in appropriate chambers and the gradient was allowed to form for one hour. […] Impedance to this current flow was measured and a resistance value was calculated according to established protocols. […] In the results presented below, the data is presented as normalized resistance, which is calculated as a fraction of the initial resistance of the chamber at the start of the experiment.
A gradient was established by loading 1 mM folate into the chemoattractant well of a modified ECIS chamber, and one hour later Dictyostelium cells were placed in the adjacent cell well. […] In order to visualize the arrival of the cells at the target electrode, the cells exposed to folate were continuously monitored by video microscopy. […]

[2] = tested on: Dictyostelium cells; test: Inhibition of chemotactic response to folic acid by cisplatin, ECIS/taxis; format: cell-based, Dictyostelium discoidium; settings: increasing concentrations of cisplatin, folic acid as chemoattractant
Description: These chambers were filled with 300 μL of a 0.5% solution of melted agarose prepared as described above. The thickness of the agarose layer is 4 mm. […]

| SMILES | absolute number of cells that arrive at the electrode versus folate dose ([1]; folate 0.16 to 1 mM in chemoattractant well) | time of arrival of cells at the target electrode after placement of cells in the cell well ([1]; gradient formed by 1 mM folate) | average speed of cell movement to the target electrode ([1]; gradient from 1 mM folate) | time of first small resistance peak (initial cell spreading on the target electrode) ([1]; gradient from 1 mM folate in chemoattractant well, loaded 1 h before cells, wells 2 mm from electrode) | effect on time of arrival of cells at the electrode [2] |
| --- | --- | --- | --- | --- | --- |
| Nc1nc2ncc(CNc3ccc(C(=O)N[C@@H](CCC(=O)O)C(=O)O)cc3)nc2c(=O)[nH]1 [folate, folic acid] | absolute number of cells that arrive decreases as the dose of folate used to establish the gradient decreases | approximately 3.5 hours | approximately 10 μm/min | 3.75 h |  |
| N.N.[Cl][Pt][Cl] [cisplatin, Cisplatin] |  |  |  |  | delayed in a manner proportional to the dose of cisplatin |

— patent US6723523B2, “System and method for investigating the effect of chemical and other factors on cell movement” (University of Connecticut, priority 2000, dated 2004)
